Test results reported in patent US9693997B2, “Antiviral compounds” (priority 2013, dated 2017).
Where two headings read alike, the source gives them in different places.

What was measured:
[1] = system: Pseudotyped HCV GT1b particles (HCVpp), entry into Huh7-high CD81 cells; test: microbe, parasite or virus in culture; type: cell-based, HCV GT1b Con1 strain
[2] = system: pseudotyped VSV G particles (VSVpp) in Huh7-high CD81 cells; test: microbe, parasite or virus in culture; type: cell-based, vesicular stomatitis virus; details: Vesicular stomatitis virus, 72 h, read-out: VSVpp (EC50, μM)
[3] = Hepatitis C virus, GT1B, 72 h, read-out: HCVpp GT-1b (EC50, μM)

COc1ccc(-c2c(Cl)cc(Nc3n[nH]c(N)n3)cc2C(F)(F)F)cc1S(=O)(=O)NC(C)(C)C [Compound 216, 4′-(5-Amino-1H-[1,2,4]triazol-3-ylamino)-6′-chloro-4-methoxy-2′-trifluoromethyl-biphenyl-3-sulfonic acid tert-butylamide]
EC50 [1, 3]: 0.004 µM | EC50 [2]: 6.48 µM

Nc1nc(Nc2cc(Cl)c(-c3ccc(S(=O)(=O)N4CCCC4)cc3)c(Cl)c2)n[nH]1 [Compound 220, N*3*-[2,6-Dichloro-4′-(pyrrolidine-1-sulfonyl)-biphenyl-4-yl]-1H-[1,2,4]triazole-3,5-diamine]
EC50 [1, 3]: 0.028 µM | EC50 [2]: 24.8 µM

COc1ccc(-c2c(Cl)cc(Nc3n[nH]c(N)n3)cc2C(F)(F)F)cc1S(=O)(=O)NC1CCN(C(=O)OC(C)(C)C)CC1 [Compound 221, 4-[4′-(5-Amino-1H-[1,2,4]triazol-3-ylamino)-6′-chloro-4-methoxy-2′-trifluoromethyl-biphenyl-3-sulfonylamino]-piperidine-1-carboxylic acid tert-butyl ester]
EC50 [1, 3]: 0.003 µM | EC50 [2]: 4.55 µM

CC(C)(C)N(CC(F)(F)F)S(=O)(=O)c1ccc(-c2c(Cl)cc(Nc3n[nH]c(N)n3)cc2C(F)(F)F)cc1 [Compound 223, 4′-(5-Amino-1H-[1,2,4]triazol-3-ylamino)-6′-chloro-2′-trifluoromethyl-biphenyl-4-sulfonic acid tert-butyl-(2,2,2-trifluoro-ethyl)-amide]
EC50 [1, 3]: 0.029 µM | EC50 [2]: 9.8 µM

Nc1nc(Nc2cc(Cl)c(-c3ccc(S(=O)(=O)N4CC(F)(F)C4)cc3)c(C(F)(F)F)c2)n[nH]1 [Compound 224, N*3*-[6-Chloro-4′-(3,3-difluoro-azetidine-1-sulfonyl)-2-trifluoromethyl-biphenyl-4-yl]-1H-[1,2,4]triazole-3,5-diamine]
EC50 [1, 3]: 0.02 µM | EC50 [2]: 4.57 µM

COc1ccc(-c2c(Cl)cc(Nc3n[nH]c(N)n3)cc2C(F)(F)F)cc1S(=O)(=O)NC1(C#N)CC1 [Compound 225]
EC50 [1, 3]: 0.031 µM | EC50 [2]: > 10 µM

CC(C)(CO)NS(=O)(=O)c1ccc(-c2c(Cl)cc(Nc3n[nH]c(N)n3)cc2C(F)(F)F)cc1 [Compound 226, 4′-(5-Amino-1H-[1,2,4]triazol-3-ylamino)-6′-chloro-2′-trifluoromethyl-biphenyl-4-sulfonic acid (2-hydroxy-1,1-dimethyl-ethyl)-amide]
EC50 [1, 3]: 0.032 µM | EC50 [2]: 5.39 µM

COc1ccc(-c2c(Cl)cc(Nc3n[nH]c(N)n3)cc2C(F)(F)F)cc1S(=O)(=O)NC1CCN(C(C)=O)CC1 [Compound 227, 4′-(5-Amino-1H-[1,2,4]triazol-3-ylamino)-6′-chloro-4-methoxy-2′-trifluoromethyl-biphenyl-3-sulfonic acid (1-acetyl-piperidin-4-yl)-amide]
EC50 [1, 3]: 0.042 µM | EC50 [2]: > 10 µM

CC(C)S(=O)(=O)c1ccc(-c2c(Cl)cc(Nc3n[nH]c(N)n3)cc2C(F)(F)F)cc1 [Compound 228, N*3*-[6-Chloro-4′-(propane-2-sulfonyl)-2-trifluoromethyl-biphenyl-4-yl]-1H-[1,2,4]triazole-3,5-diamine]
EC50 ([1]; read-out: HCVpp GT-1b (EC50)): 0.042 µM | EC50 [2]: 7.52 µM

COc1ccc(-c2c(Cl)cc(Nc3n[nH]c(N)n3)cc2C(F)(F)F)cc1OC(C)C [Compound 229, N*3*-(6-Chloro-3′-isopropoxy-4′-methoxy-2-trifluoromethyl-biphenyl-4-yl)-1H-[1,2,4]triazole-3,5-diamine]
EC50 [1, 3]: 0.072 µM | EC50 [2]: 6.47 µM

CC(C)(C)Oc1ccc(-c2c(Cl)cc(Nc3n[nH]c(N)n3)cc2C(F)(F)F)cc1 [Compound 230, N*3*-(4′-tert-Butoxy-6-chloro-2-trifluoromethyl-biphenyl-4-yl)-1H-[1,2,4]triazole-3,5-diamine]
EC50 [1, 3]: 0.332 µM | EC50 [2]: > 10 µM

COc1ccc(-c2c(Cl)cc(Nc3n[nH]c(N)n3)cc2C(F)(F)F)cc1C(F)(F)F [Compound 231, N*3*-(6-Chloro-4′-methoxy-2,3′-bis-trifluoromethyl-biphenyl-4-yl)-1H-[1,2,4]triazole-3,5-diamine]
EC50 [1, 3]: 0.41 µM | EC50 [2]: > 10 µM

Nc1nc(Nc2cc(Cl)c(-c3ccc(S(=O)(=O)N4CC(F)C4)cc3)c(C(F)(F)F)c2)n[nH]1 [Compound 233, N*3*-[6-Chloro-4′-(3-fluoro-azetidine-1-sulfonyl)-2-trifluoromethyl-biphenyl-4-yl]-1H-[1,2,4]triazole-3,5-diamine]
EC50 [1, 3]: 0.051 µM | EC50 [2]: > 10 µM

COc1ccc(-c2c(Cl)cc(Nc3n[nH]c(N)n3)cc2C(F)(F)F)cc1S(=O)(=O)N(CC(F)(F)F)C1CCNCC1 [Compound 234, 4′-(5-Amino-1H-[1,2,4]triazol-3-ylamino)-6′-chloro-4-methoxy-2′-trifluoromethyl-biphenyl-3-sulfonic acid piperidin-4-yl-(2,2,2-trifluoro-ethyl)-amide; compound with trifluoro-acetic acid]
EC50 [1, 3]: 0.005 µM | EC50 [2]: > 10 µM

Nc1nc(Nc2cc(Cl)c(-c3ccc(NC(=O)C4CCC(F)(F)CC4)cc3)c(C(F)(F)F)c2)n[nH]1 [Compound 235, 4,4-Difluorocyclohexanecarboxylic acid [4′-(5-amino-1H-[1,2,4]triazol-3-ylamino)-2′-chloro-6′-trifluoromethyl-biphenyl-4-yl]-amide]
EC50 [1, 3]: 0.012 µM | EC50 [2]: > 10 µM

CC(C)(C)N1CC(OC(=O)Nc2ccc(-c3c(Cl)cc(Nc4n[nH]c(N)n4)cc3C(F)(F)F)cc2)C1 [Compound 236, [4′-(5-amino-1H-[1,2,4]triazol-3-ylamino)-2′-chloro-6′-trifluoromethyl-biphenyl-4-yl]-carbamic acid 1-tert-butyl-azetidin-3-yl ester]
EC50 [1, 3]: 0.045 µM | EC50 [2]: > 10 µM

CCCOC(=O)Nc1ccc(-c2c(Cl)cc(Nc3n[nH]c(N)n3)cc2C(F)(F)F)cc1 [Compound 237, [4′-(5-amino-1H-[1,2,4]triazol-3-ylamino)-2′-chloro-6′-trifluoromethyl-biphenyl-4-yl]-carbamic acid propyl ester]
EC50 [1, 3]: 0.058 µM | EC50 [2]: 3.67 µM

Nc1nc(Nc2cc(Cl)c(-c3ccc(NC(=O)C4CCS(=O)(=O)CC4)cc3)c(C(F)(F)F)c2)n[nH]1 [Compound 239]
EC50 [1, 3]: 0.122 µM | EC50 [2]: > 10 µM

Nc1nc(Nc2cc(Cl)c(-c3ccc(NC(=O)CN4CCOCC4)cc3)c(C(F)(F)F)c2)n[nH]1 [Compound 241, [4′-(5-amino-1H-[1,2,4]triazol-3-ylamino)-2′-chloro-6′-trifluoromethyl-biphenyl-4-yl]-2-morpholin-4-yl-acetamide]
EC50 [1, 3]: 0.123 µM | EC50 [2]: > 10 µM

CS(=O)(=O)Nc1cccc(-c2c(F)cc(Nc3nc(N)n[nH]3)cc2C(F)(F)F)c1 [Compound 243, N-[4′-(5-Amino-2H-[1,2,4]-triazol-3-ylamino)-6′-fluoro-2′-trifluoromethyl-biphenyl-3-yl]-methanesulfonamide]
EC50 [1, 3]: 0.213 µM | EC50 [2]: > 10 µM

Nc1n[nH]c(Nc2cc(F)c(-c3cccc(F)c3)c(C(F)(F)F)c2)n1 [Compound 244]
EC50 [1, 3]: 0.689 µM | EC50 [2]: 33.4 µM

Nc1n[nH]c(Nc2cc(F)c(-c3ccc(F)cc3)c(C(F)(F)F)c2)n1 [Compound 245, N^5-[6,4′-Difluoro-2-trifluoromethylbiphenyl-4-yl]-1H-[1,2,4]-triazole-3,5-diamine]
EC50 [1, 3]: 1.47 µM | EC50 [2]: 17.1 µM

Nc1n[nH]c(Nc2cc(F)c(-c3ccc(C(F)(F)F)cc3)c(C(F)(F)F)c2)n1 [Compound 246, N^5-[6-Fluoro-2,4′-bis-trifluoromethylbiphenyl-4-yl]-1H-[1,2,4]-triazole-3,5-diamine]
EC50 [1, 3]: 3.54 µM | EC50 [2]: 37.9 µM

Cc1ccc(-c2c(F)cc(Nc3nc(N)n[nH]3)cc2C(F)(F)F)cc1 [Compound 247, N^5-[6-Fluoro-4′-methyl-2-trifluoromethylbiphenyl-4-yl]-1H-[1,2,4]-triazole-3,5-diamine]
EC50 [1, 3]: 1.7 µM | EC50 [2]: 10.7 µM

CNC(=O)c1cccc(-c2c(F)cc(Nc3nc(N)n[nH]3)cc2C(F)(F)F)c1 [Compound 248, 4′-(5-Amino-2H-[1,2,4]-triazol-3-ylamino)-6′-fluoro-2′-trifluoromethyl-biphenyl-43-carboxylic acid methylamide]
EC50 [1, 3]: 1.02 µM | EC50 [2]: > 10 µM

Nc1n[nH]c(Nc2cc(F)c(-c3ccc4ccccc4c3)c(C(F)(F)F)c2)n1 [Compound 249, N^5-(3-Fluoro-4-naphthalen-2-yl-5-trifluoromethylphenyl)-1H-[1,2,4]-triazole-3,5-diamine]
EC50 [1, 3]: 0.991 µM | EC50 [2]: 17.2 µM

Nc1nc(Nc2cc(Cl)c(-c3ccc(NC(=O)C4CCC(F)(F)CC4)cc3)c(Cl)c2)n[nH]1 [Compound 250, 4,4-Difluorocyclohexanecarboxylic acid [4′-(5-amino-1H-[1,2,4]triazol-3-ylamino)-2′,6′-dichloro-biphenyl-4-yl]-amide]
EC50 [1, 3]: 0.013 µM | EC50 [2]: 14 µM

CC(C)C(=O)Nc1ccc(-c2c(Cl)cc(Nc3n[nH]c(N)n3)cc2Cl)cc1 [Compound 251, N-[4′-(5-amino-1H-[1,2,4]triazol-3-ylamino)-2′,6′-dichloro-biphenyl-4-yl]-isobutyramide]
EC50 [1, 3]: 0.041 µM | EC50 [2]: 32.5 µM

CC(C)C(=O)Nc1cccc(-c2c(Cl)cc(Nc3n[nH]c(N)n3)cc2Cl)c1 [Compound 252, N-[4′-(5-amino-1H-[1,2,4]triazol-3-ylamino)-2′,6′-dichloro-biphenyl-3-yl]-isobutyramide]
EC50 [1, 3]: 0.067 µM | EC50 [2]: > 10 µM

Nc1nc(Nc2cc(Cl)c(-c3ccc(S(N)(=O)=O)cc3)c(Cl)c2)n[nH]1 [Compound 253]
EC50 [1, 3]: 0.026 µM | EC50 [2]: 0.6 µM

Nc1nc(Nc2cc(Cl)c(-c3ccc4[nH]c(=O)[nH]c4c3)c(Cl)c2)n[nH]1 [Compound 255]
EC50 [1, 3]: 0.42 µM | EC50 [2]: > 10 µM

Nc1nc(Nc2cc(Cl)c(-c3ccc4c(c3)NC(=O)C4)c(Cl)c2)n[nH]1 [Compound 256]
EC50 [1, 3]: 0.594 µM | EC50 [2]: 8.69 µM

Nc1nc(Nc2cc(Cl)c(-c3ccc4[nH]ncc4c3)c(Cl)c2)n[nH]1 [Compound 257, N-3-[3′,5′-dichlorophenyl-4′-(1H-indazol-5-yl)-phenyl]-1H-[1,2,4]triazole-3,5-diamine]
EC50 [1, 3]: 0.343 µM | EC50 [2]: 2.73 µM
